Data taken from publication PMC9506414, “Novel 2,6,9-Trisubstituted Purines as Potent CDK Inhibitors Alleviating Trastuzumab-Resistance of HER2-Positive Breast Cancers” (Pharmaceuticals, 2022).
Like-named read-outs stand apart in the source and are kept apart here.

How the values were obtained:
HCC1954 cells = assay: Antiproliferation assay (Cell-titer Glo, 72 h); assay type: cell-based; conditions: Homo sapiens, 72 h, means and standard deviations from three independent assays, read-out: HCC1954 (GI50/μM)
Procedure: (§1) Breast-cancer cell lines (SK-Br3, HCC-1954) were purchased from Korea Cell Line Bank (Seoul, Korea) and were cultured in RPMI medium supplemented with 10% FBS and penicillin/streptomycin (Welgene, Seoul, Korea). All cell lines were maintained at 37 °C in a cell incubator in the presence of 5% CO2.
(§2) Breast-cancer cells in culture media (100 μL volume/well, 5000 SK-Br3 cells/well, 1000 HCC-1954 cells/well) were seeded in tissue culture-treated 96-well plates, and incubated at a cell incubator for 24 h. Serially diluted compounds (3-fold, 10 point from 10 mM, duplicated) were pre-plated and 500 nL of compound solutions were pin-transferred to the cells in the assay plates using pintool system (JANUS liquid handler, PerkinElmer, Waltham, MA, USA) and incubated at a cell incubator for 72 h. Cell-titer Glo^TM reagent (50 μL, Promega Corp., Madison, WI, USA) was added to each well, and the luminescence signal was read using an Envision^TM plate reader (PerkinElmer, Waltham, MA, USA). The titration curve fitting and IC50 values were generated using Prism 7.0 s/w (GraphPad, San Diego, CA, USA).

SK-Br3 cells = assay: Antiproliferation assay (Cell-titer Glo, 72 h); assay type: cell-based; conditions: Homo sapiens, SK-BR-3; 72 h; means and standard deviations from three independent assays; read-out: SK-Br3 (GI50/μM)
Procedure: as §1, §2

[1] = In vitro liver microsomal stability; assay type: in vitro ADME; conditions: liver microsomes, pH 7.4, 30 m at 37 °C with NADPH regeneration system
Procedure: Each compound (final 1 μM, duplicated) was added to each 0.1 M PBS solution (pH 7.4) containing liver microsome of three different species (human, dog, mouse). After a brief (5 m) incubation at 37 °C, the NADPH regeneration system (Promega Corp., Madison, WI, USA) was added, then the mixture was incubated at 37 °C for 30 m. The reaction was terminated by adding acetonitrile containing an internal standard (chlorpropamide), then the mixture was centrifuged at 15,000 rpm, 4 °C for 5 m. The supernatant solution was injected to LC/MS/MS system (TSQ Vantage Triple-Stage Quadrupole Mass Spectrometer, ThermoFisher Scientific, Waltham, MA, USA). The remaining substrates were analyzed with Xcalibur 4.4 s/w using an MRM (multiple reaction monitoring) quantitation mode.

CYP1A2 = molecular target: T1, CYP1A2 (Homo sapiens, UniProt P05177); assay: CYP inhibition; assay type: in vitro ADME
T1 sequence (P05177 1-516): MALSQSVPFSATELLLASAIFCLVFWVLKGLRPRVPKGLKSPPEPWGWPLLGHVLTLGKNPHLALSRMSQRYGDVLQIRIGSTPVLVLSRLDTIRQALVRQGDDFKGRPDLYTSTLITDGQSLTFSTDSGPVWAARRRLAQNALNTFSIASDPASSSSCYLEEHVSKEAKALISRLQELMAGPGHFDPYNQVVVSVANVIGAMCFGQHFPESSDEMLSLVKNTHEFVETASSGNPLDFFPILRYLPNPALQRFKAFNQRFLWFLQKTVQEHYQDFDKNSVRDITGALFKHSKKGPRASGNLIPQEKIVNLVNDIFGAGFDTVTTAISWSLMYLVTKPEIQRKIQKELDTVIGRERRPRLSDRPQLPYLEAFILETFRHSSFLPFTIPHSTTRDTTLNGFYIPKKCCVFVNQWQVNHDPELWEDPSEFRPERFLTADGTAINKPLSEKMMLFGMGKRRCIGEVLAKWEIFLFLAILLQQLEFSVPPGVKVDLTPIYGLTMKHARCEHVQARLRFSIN
Procedure: Table 6 In vitro liver metabolic stability and activity against CYPs of potent analogues. | column: CYP % Activity at 10 μM / 1A2

CYP2C9 = CYP2C9 (Homo sapiens, UniProt P11712); assay: CYP inhibition; assay type: in vitro ADME
Procedure: Table 6 In vitro liver metabolic stability and activity against CYPs of potent analogues. | column: CYP % Activity at 10 μM / 2C9

CYP2C19 = CYP2C19 (Homo sapiens, UniProt P33261); assay: CYP inhibition; assay type: in vitro ADME
Procedure: Table 6 In vitro liver metabolic stability and activity against CYPs of potent analogues. | column: CYP % Activity at 10 μM / 2C19

CYP2D6 = CYP2D6 (Homo sapiens, UniProt P10635); assay: CYP inhibition; assay type: in vitro ADME
Procedure: Table 6 In vitro liver metabolic stability and activity against CYPs of potent analogues. | column: CYP % Activity at 10 μM / 2D6

CYP3A4 = CYP3A4 (Homo sapiens, UniProt P08684); assay: CYP inhibition; assay type: in vitro ADME
Procedure: Table 6 In vitro liver metabolic stability and activity against CYPs of potent analogues. | column: CYP % Activity at 10 μM / 3A4

CDK12/CyclinK = CDK12/CyclinK (Homo sapiens, UniProt Q9NYV4); assay: In vitro CDK12/cyclinK kinase assay; assay type: biochemical; parameters: purchased Reaction Biology Corp. (CRO that ran the assay)
Procedure: In vitro CDK12/cyclinK assays for all compounds and in vitro kinome-wide inhibition profiling of 30d at 10 μM were performed by a CRO company (Reaction Biology Corp., San Diego, CA, USA).

[2] = Table 5, means and standard deviations from three independent assays, read-out: CDK12/CyclinK (IC50/μM)

Sequence of CYP2C19 (P33261 whole entry): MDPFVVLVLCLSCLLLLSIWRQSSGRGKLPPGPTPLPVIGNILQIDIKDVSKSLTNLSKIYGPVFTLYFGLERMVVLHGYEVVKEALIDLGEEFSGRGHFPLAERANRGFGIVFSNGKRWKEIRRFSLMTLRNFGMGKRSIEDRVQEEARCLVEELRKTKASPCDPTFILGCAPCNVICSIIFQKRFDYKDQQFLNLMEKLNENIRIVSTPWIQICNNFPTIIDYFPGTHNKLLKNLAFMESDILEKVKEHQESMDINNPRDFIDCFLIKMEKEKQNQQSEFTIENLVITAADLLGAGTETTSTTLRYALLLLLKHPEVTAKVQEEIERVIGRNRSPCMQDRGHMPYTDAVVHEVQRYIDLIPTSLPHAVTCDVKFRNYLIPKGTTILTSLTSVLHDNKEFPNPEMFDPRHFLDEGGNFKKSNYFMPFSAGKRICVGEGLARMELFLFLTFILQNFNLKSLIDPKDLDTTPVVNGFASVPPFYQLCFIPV
Sequence of CYP2C9 (P11712 whole entry): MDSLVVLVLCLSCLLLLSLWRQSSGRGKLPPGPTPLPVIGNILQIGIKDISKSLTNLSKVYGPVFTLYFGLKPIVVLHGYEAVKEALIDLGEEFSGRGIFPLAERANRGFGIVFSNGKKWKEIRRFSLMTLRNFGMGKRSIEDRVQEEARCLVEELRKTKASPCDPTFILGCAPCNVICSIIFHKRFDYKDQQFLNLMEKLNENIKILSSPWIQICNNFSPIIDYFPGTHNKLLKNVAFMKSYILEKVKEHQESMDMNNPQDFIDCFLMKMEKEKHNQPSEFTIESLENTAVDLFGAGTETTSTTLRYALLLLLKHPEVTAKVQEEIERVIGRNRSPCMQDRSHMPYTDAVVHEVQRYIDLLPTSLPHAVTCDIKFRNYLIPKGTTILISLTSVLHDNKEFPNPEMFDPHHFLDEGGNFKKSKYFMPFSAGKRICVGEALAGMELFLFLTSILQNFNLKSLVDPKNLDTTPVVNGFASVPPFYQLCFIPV
Sequence of CDK12/CyclinK (Q9NYV4 whole entry): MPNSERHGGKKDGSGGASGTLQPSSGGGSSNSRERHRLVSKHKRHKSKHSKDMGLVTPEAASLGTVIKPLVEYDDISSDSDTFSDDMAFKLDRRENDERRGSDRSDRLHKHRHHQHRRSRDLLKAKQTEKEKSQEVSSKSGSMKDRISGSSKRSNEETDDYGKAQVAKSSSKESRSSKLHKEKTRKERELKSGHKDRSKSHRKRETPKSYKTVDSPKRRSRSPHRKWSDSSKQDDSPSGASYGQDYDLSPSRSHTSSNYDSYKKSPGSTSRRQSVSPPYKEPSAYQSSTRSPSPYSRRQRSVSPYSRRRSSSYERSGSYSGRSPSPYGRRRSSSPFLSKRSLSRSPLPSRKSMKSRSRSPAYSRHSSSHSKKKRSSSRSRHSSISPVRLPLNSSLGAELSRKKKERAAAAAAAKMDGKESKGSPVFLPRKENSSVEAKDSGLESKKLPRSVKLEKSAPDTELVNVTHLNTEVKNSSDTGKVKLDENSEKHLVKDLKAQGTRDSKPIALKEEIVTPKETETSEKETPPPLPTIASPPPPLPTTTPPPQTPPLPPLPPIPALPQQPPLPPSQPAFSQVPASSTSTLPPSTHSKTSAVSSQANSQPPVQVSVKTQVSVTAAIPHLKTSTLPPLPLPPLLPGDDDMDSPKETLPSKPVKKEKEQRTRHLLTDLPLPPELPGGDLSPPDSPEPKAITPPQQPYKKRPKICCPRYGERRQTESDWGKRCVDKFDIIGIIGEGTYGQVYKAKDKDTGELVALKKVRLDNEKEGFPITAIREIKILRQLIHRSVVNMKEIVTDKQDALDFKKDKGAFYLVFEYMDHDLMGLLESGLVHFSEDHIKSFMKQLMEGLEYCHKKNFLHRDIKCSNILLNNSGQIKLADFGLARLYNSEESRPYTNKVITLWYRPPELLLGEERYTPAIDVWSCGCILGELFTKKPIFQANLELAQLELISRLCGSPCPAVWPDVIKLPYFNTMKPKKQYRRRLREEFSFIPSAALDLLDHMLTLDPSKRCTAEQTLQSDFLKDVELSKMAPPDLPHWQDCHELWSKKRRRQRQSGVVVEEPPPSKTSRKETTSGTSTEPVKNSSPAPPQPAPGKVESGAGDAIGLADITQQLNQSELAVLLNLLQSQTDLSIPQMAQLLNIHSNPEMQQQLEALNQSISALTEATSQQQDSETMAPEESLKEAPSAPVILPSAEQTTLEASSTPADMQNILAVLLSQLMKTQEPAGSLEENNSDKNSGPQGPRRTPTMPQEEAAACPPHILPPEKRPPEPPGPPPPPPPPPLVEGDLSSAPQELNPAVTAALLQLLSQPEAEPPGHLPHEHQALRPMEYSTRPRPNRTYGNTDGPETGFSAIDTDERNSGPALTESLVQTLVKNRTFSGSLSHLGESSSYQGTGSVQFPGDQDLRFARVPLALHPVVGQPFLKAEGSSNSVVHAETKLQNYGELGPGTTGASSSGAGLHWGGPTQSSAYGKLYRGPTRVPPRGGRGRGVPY
Sequence of CDK12/CyclinK (O75909 whole entry partner): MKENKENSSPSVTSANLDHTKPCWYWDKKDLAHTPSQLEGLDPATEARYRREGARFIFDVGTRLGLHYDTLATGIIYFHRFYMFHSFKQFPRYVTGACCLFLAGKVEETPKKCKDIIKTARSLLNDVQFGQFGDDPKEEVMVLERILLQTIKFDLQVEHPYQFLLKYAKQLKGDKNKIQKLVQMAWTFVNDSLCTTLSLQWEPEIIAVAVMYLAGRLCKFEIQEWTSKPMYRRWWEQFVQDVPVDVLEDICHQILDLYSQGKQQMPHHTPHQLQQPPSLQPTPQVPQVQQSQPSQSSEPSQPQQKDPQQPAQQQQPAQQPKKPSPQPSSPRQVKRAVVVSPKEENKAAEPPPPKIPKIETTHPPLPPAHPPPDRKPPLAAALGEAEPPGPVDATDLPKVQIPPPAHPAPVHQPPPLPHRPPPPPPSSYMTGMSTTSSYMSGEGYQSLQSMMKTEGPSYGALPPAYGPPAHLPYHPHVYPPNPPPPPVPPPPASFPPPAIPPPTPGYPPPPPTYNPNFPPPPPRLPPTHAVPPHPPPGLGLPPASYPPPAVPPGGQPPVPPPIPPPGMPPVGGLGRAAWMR
Sequence of CYP3A4 (P08684 whole entry): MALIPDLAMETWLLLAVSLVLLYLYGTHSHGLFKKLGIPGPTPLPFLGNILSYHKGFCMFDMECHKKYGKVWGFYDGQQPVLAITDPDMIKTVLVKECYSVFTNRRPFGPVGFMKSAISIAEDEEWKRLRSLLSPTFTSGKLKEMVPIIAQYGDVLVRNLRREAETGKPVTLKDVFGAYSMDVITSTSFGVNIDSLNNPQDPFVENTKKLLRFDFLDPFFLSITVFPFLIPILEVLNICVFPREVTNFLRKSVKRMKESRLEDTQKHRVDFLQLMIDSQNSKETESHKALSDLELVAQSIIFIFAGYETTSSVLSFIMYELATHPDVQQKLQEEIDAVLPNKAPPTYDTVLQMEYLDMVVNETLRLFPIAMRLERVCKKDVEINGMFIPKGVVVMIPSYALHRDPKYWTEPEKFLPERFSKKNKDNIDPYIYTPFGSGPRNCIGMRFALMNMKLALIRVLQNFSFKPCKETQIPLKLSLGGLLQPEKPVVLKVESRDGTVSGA
Sequence of CYP2D6 (P10635 whole entry): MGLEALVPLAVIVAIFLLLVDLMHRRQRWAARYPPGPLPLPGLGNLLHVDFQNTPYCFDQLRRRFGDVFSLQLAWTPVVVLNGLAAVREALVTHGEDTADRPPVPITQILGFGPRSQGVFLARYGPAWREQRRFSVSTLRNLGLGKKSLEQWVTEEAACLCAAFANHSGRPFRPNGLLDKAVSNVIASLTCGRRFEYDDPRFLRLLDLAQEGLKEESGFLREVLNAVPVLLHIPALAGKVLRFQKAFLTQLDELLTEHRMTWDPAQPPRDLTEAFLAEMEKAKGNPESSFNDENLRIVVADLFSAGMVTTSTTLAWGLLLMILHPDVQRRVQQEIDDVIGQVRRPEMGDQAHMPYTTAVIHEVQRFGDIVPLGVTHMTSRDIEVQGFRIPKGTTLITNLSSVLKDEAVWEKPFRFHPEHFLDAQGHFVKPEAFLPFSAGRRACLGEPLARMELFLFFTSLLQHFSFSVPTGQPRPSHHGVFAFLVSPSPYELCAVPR

GI50 (HCC1954 cells) [µM]	GI50 (SK-Br3 cells) [µM]	remaining at 30 min, 1 μM ([1]; dog) [%]	remaining at 30 min, 1 μM ([1]; human) [%]	remaining at 30 min, 1 μM ([1]; mouse) [%]	CYP % Activity at 10 μM 1A2 (CYP1A2) [%]	CYP % Activity at 10 μM 2C9 (CYP2C9) [%]	CYP % Activity at 10 μM 2C19 (CYP2C19) [%]	CYP % Activity at 10 μM 2D6 (CYP2D6) [%]	CYP % Activity at 10 μM 3A4 (CYP3A4) [%]	IC50 (CDK12/CyclinK; [2]) [µM]	IC50 (CDK12/CyclinK; read-out: CDK12/cyclinK IC50) [µM]	SMILES
0.104 ± 0.003	0.136 ± 0.016	45.1	32.2	35.3	59.3	73.0	76.8	89.6	38.9	0.029 ± 0.015	< 0.03	CCn1cnc2c(NCc3ccc(-c4ccnc(C)c4)nc3)nc(-c3ccc(N)nc3)nc21 [Compound 30a, 2-(6-Aminopyridin-3-yl)-9-ethyl-N-((2′-methyl-[2,4′-bipyridin]-5-yl)methyl)-9H-purin-6-amine]
0.08 ± 0.007	0.09 ± 0.008	53.6	40.6	45	74.9	82.9	75.4	85.7	72.4	0.028 ± 0.008	< 0.03	CCn1cnc2c(NCc3ccc(-c4ccnc(C)c4)nc3)nc(-c3cnc(N)nc3)nc21 [Compound 30b, 2-(2-Aminopyrimidin-5-yl)-9-ethyl-N-((2′-methyl-[2,4′-bipyridin]-5-yl)methyl)-9H-purin-6-amine]
0.157 ± 0.022	0.189 ± 0.057	79.5	27.3	34	68.6	67.5	73.9	88.8	31.8	0.064 ± 0.012	–	CCn1cnc2c(NCc3ccc(-c4ccnc(C)c4)nc3)nc(-c3cncnc3)nc21 [Compound 30c, 9-Ethyl-N-((2′-methyl-[2,4′-bipyridin]-5-yl)methyl)-2-(pyrimidin-5-yl)-9H-purin-6-amine]
